Test results taken from publication PMC6325200, “Effects of Microplate Type and Broth Additives on Microdilution MIC Susceptibility Assays” (Antimicrobial Agents and Chemotherapy, 2018).
≈ marks a conversion by molar mass, not a printed value.

Tests used:
E. coli ATCC 25922 = test: microbe, parasite or virus in culture; details: n = 2
Experimental: A positive control of a row of just the bacteria and a negative control of only the medium were included for every plate tested.
The compounds along with standard antibiotics were serially diluted 2-fold across the 96-well plates. […] A sample of each culture was then diluted 40-fold in fresh MH broth (in presence and absence of Tween) and incubated at 37°C for 2 to 3 h.
For experiments in the presence of surfactant, 2% beractant (25 mg/ml) was added to the mid-log-phase cultures and mixed gently and added to all the 96-well plates. For experiments in the presence of serum, a mixture of 50% of human serum along with 50% MHB was prepared and used throughout the experiment.

E. coli = details: literature value; cited from earlier work
P. aeruginosa ATCC 10145 = test: microbe, parasite or virus in culture; details: Pseudomonas aeruginosa, n = 2
Outline: (§1)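 MH broth with or without Tween received a 40-fold dilution of each culture, held at 37°C for 2–3 h. Twofold dilution series of the compounds and standard antibiotics are run in 96-well plates.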

K. pneumoniae ATCC 13883 = test: microbe, parasite or virus in culture; details: Klebsiella pneumoniae, n = 2
Outline: as §1

A. baumannii ATCC 19606 = test: microbe, parasite or virus in culture; details: Acinetobacter baumannii, n = 2
Outline: as §1

Molecule `CC1(C)S[C@@H]2[C@H](NC(=O)Cc3ccccc3)C(=O)N2[C@H]1C(=O)O` [Penicillin G, penicillin G] has an MIC (E. coli ATCC 25922; Corning PS plate, MHB −T80, no additive) of 32 to 64 mg/L, an MIC (E. coli ATCC 25922; Escherichia coli, ATCC25922, 24 h, Corning NBS, MH + 2% LHB, 2% LS) of 32 to 64 mg/L and an MIC (E. coli ATCC 25922; Escherichia coli, ATCC25922, 24 h, Corning NBS, MH + 2% LHB, 50% HS) of 32 to 64 mg/L. The MIC (E. coli ATCC 25922; Escherichia coli, ATCC25922, 24 h, Corning NBS, MH + 2% LHB, no additive) was 32 to 64 mg/L, the MIC (E. coli ATCC 25922; Escherichia coli, ATCC25922, 24 h, Corning NBS, MH + T80, 2% LS) was 32 mg/L and the MIC (E. coli ATCC 25922; Escherichia coli, ATCC25922, 24 h, Corning NBS, MH + T80, 50% HS) was 32 to 64 mg/L. For the same molecule, the MIC (E. coli ATCC 25922; Escherichia coli, ATCC25922, 24 h, Corning PS, MH + 2% LHB, 2% LS) was 32 to 64 mg/L, the MIC (E. coli ATCC 25922; Escherichia coli, ATCC25922, 24 h, Corning PS, MH + 2% LHB, no additive) was 64 mg/L and the MIC (E. coli ATCC 25922; Escherichia coli, ATCC25922, 24 h, Corning PS, MH + T80, 2% LS) was 32 to 64 mg/L. It also gave an MIC (E. coli ATCC 25922; Escherichia coli, ATCC25922, 24 h, Corning PS, MH + T80, 50% HS) of 64 mg/L, an MIC (E. coli ATCC 25922; Escherichia coli, ATCC25922, 24 h, Corning TC, MH + 2% LHB, 2% LS) of 32 to 64 mg/L and an MIC (E. coli ATCC 25922; Escherichia coli, ATCC25922, 24 h, Corning TC, MH + 2% LHB, 50% HS) of 32 to 64 mg/L. It also gave an MIC (E. coli ATCC 25922; Escherichia coli, ATCC25922, 24 h, Corning TC, MH + 2% LHB, no additive) of 64 mg/L, an MIC (E. coli ATCC 25922; Escherichia coli, ATCC25922, 24 h, Corning TC, MH + T80, 2% LS) of 32 to 64 mg/L and an MIC (E. coli ATCC 25922; Escherichia coli, ATCC25922, 24 h, Corning TC, MH + T80, 50% HS) of 64 mg/L. The MIC (E. coli ATCC 25922; Escherichia coli, ATCC25922, 24 h, Trek PS, MH + 2% LHB, 2% LS) was 32 mg/L, the MIC (E. coli ATCC 25922; Escherichia coli, ATCC25922, 24 h, Trek PS, MH + 2% LHB, 50% HS) was 32 mg/L and the MIC (E. coli ATCC 25922; Escherichia coli, ATCC25922, 24 h, Trek PS, MH + 2% LHB, no additive) was 32 mg/L. It also gave an MIC (E. coli ATCC 25922; Escherichia coli, ATCC25922, 24 h, Trek PS, MH + T80, 2% LS) of 32 mg/L, an MIC (E. coli ATCC 25922; Escherichia coli, ATCC25922, 24 h, Trek PS, MH + T80, 50% HS) of 32 mg/L and an MIC (E. coli ATCC 25922; Escherichia coli, ATCC25922, Corning NBS plate, MHB +0.002% T80, no further additive) of 64 mg/L (≈ 191 µM). For the same molecule, the MIC (E. coli ATCC 25922; Escherichia coli, ATCC25922, Corning NBS plate, MHB −T80, no additive) was 64 mg/L (≈ 191 µM), the MIC (E. coli ATCC 25922; Escherichia coli, ATCC25922, Corning NBS, MH, 2% LS) was 64 mg/L (≈ 191 µM) and the MIC (E. coli ATCC 25922; Escherichia coli, ATCC25922, Corning NBS, MH, 50% HS) was 64 mg/L (≈ 191 µM). It also gave an MIC (E. coli ATCC 25922; Escherichia coli, ATCC25922, Corning PS plate, MHB +0.002% T80, no further additive) of 64 mg/L (≈ 191 µM), an MIC (E. coli ATCC 25922; Escherichia coli, ATCC25922, Corning PS plate, MHB −T80, no additive) of 32 to 64 mg/L (≈ 95.7 to 191 µM) and an MIC (E. coli ATCC 25922; Escherichia coli, ATCC25922, Corning PS, MH, 50% HS) of 64 mg/L (≈ 191 µM). The MIC (E. coli ATCC 25922; Escherichia coli, ATCC25922, Corning TC plate, MHB +0.002% T80, no further additive) was 64 mg/L (≈ 191 µM), the MIC (E. coli ATCC 25922; Escherichia coli, ATCC25922, Corning TC plate, MHB −T80, no additive) was 32 mg/L (≈ 95.7 µM) and the MIC (E. coli ATCC 25922; Escherichia coli, ATCC25922, Corning TC, MH, 2% LS) was 64 mg/L (≈ 191 µM). The MIC (E. coli ATCC 25922; Escherichia coli, ATCC25922, Corning TC, MH, 50% HS) was 64 mg/L (≈ 191 µM), the MIC (E. coli ATCC 25922; Escherichia coli, ATCC25922, Nunc PS plate, MHB +0.002% T80) was 64 mg/L (≈ 191 µM) and the MIC (E. coli ATCC 25922; Escherichia coli, ATCC25922, Nunc PS plate, MHB −T80) was 32 mg/L (≈ 95.7 µM). It also gave an MIC (E. coli ATCC 25922; Escherichia coli, ATCC25922, Nunc U TC plate, MHB +0.002% T80) of 64 mg/L (≈ 191 µM), an MIC (E. coli ATCC 25922; Escherichia coli, ATCC25922, Nunc U TC plate, MHB −T80) of 32 mg/L (≈ 95.7 µM) and an MIC (E. coli ATCC 25922; Escherichia coli, ATCC25922, Nunc flat TC plate, MHB +0.002% T80) of 64 mg/L (≈ 191 µM). The MIC (E. coli ATCC 25922; Escherichia coli, ATCC25922, Nunc flat TC plate, MHB −T80) was 32 to 64 mg/L (≈ 95.7 to 191 µM), the MIC (E. coli ATCC 25922; Escherichia coli, ATCC25922, Trek PS plate, MHB +0.002% T80, no further additive) was 32 to 64 mg/L (≈ 95.7 to 191 µM) and the MIC (E. coli ATCC 25922; Escherichia coli, ATCC25922, Trek PS plate, MHB −T80, no additive) was 64 mg/L (≈ 191 µM). The MIC (E. coli ATCC 25922; Escherichia coli, ATCC25922, Trek PS, MH, 2% LS) was 64 mg/L (≈ 191 µM), the MIC (E. coli ATCC 25922; Trek PS plate, MHB +0.002% T80, no further additive) was 32 to 64 mg/L and the “MIC (literature)” value (E. coli) was 16–64 ([71]) µg/ml. For the same molecule, the MIC (P. aeruginosa ATCC 10145; ATCC10145, Corning NBS, MHB +T80) was greater than 64 mg/L, the MIC (P. aeruginosa ATCC 10145; ATCC10145, Corning NBS, MHB -T80) was greater than 64 mg/L and the MIC (P. aeruginosa ATCC 10145; ATCC10145, Corning PS, MHB +T80) was greater than 64 mg/L. It also gave an MIC (P. aeruginosa ATCC 10145; ATCC10145, Corning PS, MHB -T80) greater than 64 mg/L, an MIC (P. aeruginosa ATCC 10145; ATCC10145, Corning TC, MHB +T80) greater than 64 mg/L and an MIC (P. aeruginosa ATCC 10145; ATCC10145, Corning TC, MHB -T80) greater than 64 mg/L. It also gave an MIC (K. pneumoniae ATCC 13883; ATCC13883, Corning NBS, MHB +T80) greater than 64 mg/L, an MIC (K. pneumoniae ATCC 13883; ATCC13883, Corning NBS, MHB -T80) greater than 64 mg/L and an MIC (K. pneumoniae ATCC 13883; ATCC13883, Corning PS, MHB +T80) greater than 64 mg/L. The MIC (K. pneumoniae ATCC 13883; ATCC13883, Corning PS, MHB -T80) was greater than 64 mg/L, the MIC (K. pneumoniae ATCC 13883; ATCC13883, Corning TC, MHB +T80) was greater than 64 mg/L and the MIC (K. pneumoniae ATCC 13883; ATCC13883, Corning TC, MHB -T80) was greater than 64 mg/L. It also gave an MIC (A. baumannii ATCC 19606; ATCC19606, Corning NBS, MHB +T80) greater than 64 mg/L, an MIC (A. baumannii ATCC 19606; ATCC19606, Corning NBS, MHB -T80) greater than 64 mg/L and an MIC (A. baumannii ATCC 19606; ATCC19606, Corning PS, MHB +T80) greater than 64 mg/L. It also gave an MIC (A. baumannii ATCC 19606; ATCC19606, Corning PS, MHB -T80) greater than 64 mg/L, an MIC (A. baumannii ATCC 19606; ATCC19606, Corning TC, MHB +T80) greater than 64 mg/L and an MIC (A. baumannii ATCC 19606; ATCC19606, Corning TC, MHB -T80) greater than 64 mg/L.
